Consider four compounds from ChEMBL document CHEMBL3576778, “Structure-Activity Relationship Studies of a Series of Semisynthetic Lipopeptides Leading to the Discovery of Surotomycin, a Novel Cyclic Lipopeptide Being Developed for the Treatment of Clostridium difficile-Associated Diarrhea” (J Med Chem, 2015).

Data set [1] concerns Clostridioides difficile. The experiment in a line: Antimicrobial activity against metronidazole-resistant Clostridium difficile. Type of data set: functional.
In the next data set the test system is Bacteroides fragilis. The experiment in a line: Toxicity against Bacteroides fragilis assessed as inhibition of microbe growth. Type of data set: organism-based.
The subject of data set [2] is Clostridioides difficile. Briefly: Antimicrobial activity against vancomycin-resistant Clostridium difficile. Type of data set: functional.
The subject of data set [3] is Clostridioides difficile. Briefly: Antimicrobial activity against daptomycin-resistant Clostridium difficile ATCC 43596 infected in Syrian golden hamster model of Clostridium difficile-associated diarrhea assessed as protection against microbial infection by measuring survival at day 25 to 26 at 0.5 mg/kg treated once daily for 5 consecutive days starting 4 hrs after spore inoculation. Type of data set: functional.

The test system of data set [4] is Staphylococcus aureus. The experiment in a line: Antimicrobial activity against daptomycin-non-susceptible Staphylococcus aureus 5080 incubated anaerobically at 37 degC for 48 hrs by agar dilution method. Type of data set: functional. As to conditions: Staphylococcus aureus, 5080, 48 h.
Data set [5] concerns Staphylococcus aureus. The experiment in a line: Antimicrobial activity against daptomycin-non-susceptible Staphylococcus aureus 5006 incubated anaerobically at 37 degC for 48 hrs by agar dilution method. Type of data set: functional. As to conditions: Staphylococcus aureus, 5006, 48 h.
Data set [6] has as its system Staphylococcus aureus. Briefly: Antimicrobial activity against daptomycin-non-susceptible Staphylococcus aureus 1145 incubated anaerobically at 37 degC for 48 hrs by agar dilution method. As to conditions: Staphylococcus aureus, 1145, 48 h. Type of data set: functional.
The subject of data set [7] is Staphylococcus aureus. The experiment in a line: Antimicrobial activity against daptomycin-non-susceptible Staphylococcus aureus 1179 incubated anaerobically at 37 degC for 48 hrs by agar dilution method. Type of data set: functional. As to conditions: Staphylococcus aureus, 1179, 48 h.
Data set [8] deals with Staphylococcus aureus. Briefly: Antimicrobial activity against daptomycin-non-susceptible Staphylococcus aureus 5003 incubated anaerobically at 37 degC for 48 hrs by agar dilution method. Type of data set: functional. As to conditions: Staphylococcus aureus, 5003, 48 h.
In data set [9] the test system is Staphylococcus aureus. Briefly: Antimicrobial activity against daptomycin-non-susceptible Staphylococcus aureus 5008 incubated anaerobically at 37 degC for 48 hrs by agar dilution method. Type of data set: functional. As to conditions: Staphylococcus aureus, 5008, 48 h.
The subject of data set [10] is Staphylococcus aureus. The experiment in a line: Antimicrobial activity against daptomycin-non-susceptible Staphylococcus aureus 5017 incubated anaerobically at 37 degC for 48 hrs by agar dilution method. Type of data set: functional. The conditions noted are these: Staphylococcus aureus, 5017, 48 h.
Data set [11] relates to Staphylococcus aureus. The experiment in a line: Antimicrobial activity against daptomycin-non-susceptible Staphylococcus aureus 5004 incubated anaerobically at 37 degC for 48 hrs by agar dilution method. Type of data set: functional. The conditions noted are these: Staphylococcus aureus, 5004, 48 h.
Data set [12] deals with Staphylococcus aureus. Briefly: Antimicrobial activity against daptomycin-non-susceptible Staphylococcus aureus 5005 incubated anaerobically at 37 degC for 48 hrs by agar dilution method. Type of data set: functional. As to conditions: Staphylococcus aureus, 5005, 48 h.
In data set [13] the test system is Staphylococcus aureus. The experiment in a line: Antimicrobial activity against daptomycin-non-susceptible Staphylococcus aureus 5033 incubated anaerobically at 37 degC for 48 hrs by agar dilution method. Type of data set: functional. As to conditions: Staphylococcus aureus, 5033, 48 h.
A further data set concerns Enterococcus faecalis. Briefly: Antimicrobial activity against daptomycin-resistant Enterococcus faecalis ATCC 49452 incubated anaerobically at 37 degC for 48 hrs by agar dilution method. Type of data set: functional. As to conditions: ATCC 49452, 48 h.
Data set [14] has as its system Clostridioides difficile. Briefly: Antimicrobial activity against daptomycin-resistant Clostridium difficile NAP1 incubated anaerobically at 37 degC for 48 hrs by agar dilution method. Type of data set: functional. As to conditions: NAP1, 48 h.
In data set [15] the test system is Staphylococcus aureus. The experiment in a line: Antimicrobial activity against daptomycin-non-susceptible Staphylococcus aureus 42 incubated anaerobically at 37 degC for 48 hrs by agar dilution method. Type of data set: functional. The conditions noted are these: Staphylococcus aureus, 42, 48 h.
Data set [16] relates to Staphylococcus aureus. The experiment in a line: Antimicrobial activity against daptomycin-non-susceptible Staphylococcus aureus 5076 incubated anaerobically at 37 degC for 48 hrs by agar dilution method. The conditions noted are these: Staphylococcus aureus, 5076, 48 h. Type of data set: functional.
Data set [17] concerns Staphylococcus aureus. The experiment in a line: Antimicrobial activity against daptomycin-non-susceptible Staphylococcus aureus 5091 incubated anaerobically at 37 degC for 48 hrs by agar dilution method. As to conditions: Staphylococcus aureus, 5091, 48 h. Type of data set: functional.
In data set [18] the test system is Staphylococcus aureus. Briefly: Antimicrobial activity against daptomycin-non-susceptible Staphylococcus aureus 5081 incubated anaerobically at 37 degC for 48 hrs by agar dilution method. Type of data set: functional. The conditions noted are these: Staphylococcus aureus, 5081, 48 h.
Data set [19] relates to Staphylococcus aureus. The experiment in a line: Antimicrobial activity against daptomycin-non-susceptible Staphylococcus aureus 278 incubated anaerobically at 37 degC for 48 hrs by agar dilution method. Type of data set: functional. As to conditions: Staphylococcus aureus, 278, 48 h.
A further data set concerns Enterococcus faecium. The experiment in a line: Antimicrobial activity against daptomycin-resistant Enterococcus faecium ATCC 6569 incubated anaerobically at 37 degC for 48 hrs by agar dilution method. Type of data set: functional. As to conditions: ATCC 6569, 48 h.
The subject of data set [20] is Staphylococcus aureus. Briefly: Antimicrobial activity against daptomycin-non-susceptible Staphylococcus aureus 5060 incubated anaerobically at 37 degC for 48 hrs by agar dilution method. Type of data set: functional. The conditions noted are these: Staphylococcus aureus, 5060, 48 h.
In data set [21] the test system is Staphylococcus aureus. Briefly: Antimicrobial activity against daptomycin-susceptible Staphylococcus aureus ATCC 29213 incubated anaerobically at 37 degC for 48 hrs by agar dilution method. The conditions noted are these: ATCC 29213, 48 h. Type of data set: functional.
Data set [22] concerns Staphylococcus aureus. Briefly: Antimicrobial activity against daptomycin-non-susceptible Staphylococcus aureus 5012 incubated anaerobically at 37 degC for 48 hrs by agar dilution method. Type of data set: functional. As to conditions: Staphylococcus aureus, 5012, 48 h.
For data set [23], the system named is Staphylococcus aureus. The experiment in a line: Antimicrobial activity against daptomycin-non-susceptible Staphylococcus aureus 1146 incubated anaerobically at 37 degC for 48 hrs by agar dilution method. Type of data set: functional. The conditions noted are these: Staphylococcus aureus, 1146, 48 h.
Data set [24] deals with Staphylococcus aureus. The experiment in a line: Antimicrobial activity against daptomycin-non-susceptible Staphylococcus aureus 5063 incubated anaerobically at 37 degC for 48 hrs by agar dilution method. Type of data set: functional. The conditions noted are these: Staphylococcus aureus, 5063, 48 h.
Data set [25] has as its system Staphylococcus aureus. The experiment in a line: Antimicrobial activity against daptomycin-non-susceptible Staphylococcus aureus 1326 incubated anaerobically at 37 degC for 48 hrs by agar dilution method. Type of data set: functional. The conditions noted are these: Staphylococcus aureus, 1326, 48 h.
In data set [26] the test system is Staphylococcus aureus. Briefly: Antimicrobial activity against daptomycin-non-susceptible Staphylococcus aureus 1616 incubated anaerobically at 37 degC for 48 hrs by agar dilution method. Type of data set: functional. The conditions noted are these: Staphylococcus aureus, 1616, 48 h.
The subject of data set [27] is Staphylococcus aureus. The experiment in a line: Antimicrobial activity against daptomycin-non-susceptible Staphylococcus aureus 5010 incubated anaerobically at 37 degC for 48 hrs by agar dilution method. Type of data set: functional. The conditions noted are these: Staphylococcus aureus, 5010, 48 h.
Data set [28] has as its system Staphylococcus aureus. Briefly: Antimicrobial activity against daptomycin-non-susceptible Staphylococcus aureus 5059 incubated anaerobically at 37 degC for 48 hrs by agar dilution method. Type of data set: functional. As to conditions: Staphylococcus aureus, 5059, 48 h.
The subject of data set [29] is Staphylococcus aureus. Briefly: Antimicrobial activity against daptomycin-non-susceptible Staphylococcus aureus 5034 incubated anaerobically at 37 degC for 48 hrs by agar dilution method. Type of data set: functional. The conditions noted are these: Staphylococcus aureus, 5034, 48 h.
Data set [30] has as its system Staphylococcus aureus. The experiment in a line: Antimicrobial activity against daptomycin-non-susceptible Staphylococcus aureus 5014 incubated anaerobically at 37 degC for 48 hrs by agar dilution method. Type of data set: functional. The conditions noted are these: Staphylococcus aureus, 5014, 48 h.
For data set [31], the system named is Staphylococcus aureus. Briefly: Antimicrobial activity against daptomycin-non-susceptible Staphylococcus aureus 5030 incubated anaerobically at 37 degC for 48 hrs by agar dilution method. As to conditions: Staphylococcus aureus, 5030, 48 h. Type of data set: functional.
The subject of data set [32] is Staphylococcus aureus. The experiment in a line: Antimicrobial activity against daptomycin-non-susceptible Staphylococcus aureus 5016 incubated anaerobically at 37 degC for 48 hrs by agar dilution method. Type of data set: functional. As to conditions: Staphylococcus aureus, 5016, 48 h.

In brackets after ≈: the same amount, converted by molar mass. Bounds are passed on as bounds.

In the data set on Clostridioides difficile [1], `Cc1ncc([N+](=O)[O-])n1CCO` [METRONIDAZOLE] yielded an MIC of at least 8 µg/mL.
For `CCCCCc1ccc(/C(C)=C/C(=O)N[C@@H](Cc2c[nH]c3ccccc23)C(=O)N[C@H](CC(N)=O)C(=O)N[C@@H](CC(=O)O)C(=O)N[C@@H]2C(=O)NCC(=O)N[C@@H](CCCN)C(=O)N[C@@H](CC(=O)O)C(=O)N[C@H](C)C(=O)N[C@@H](CC(=O)O)C(=O)NCC(=O)N[C@H](CO)C(=O)N[C@@H]([C@@H](C)CC(=O)O)C(=O)N[C@@H](CC(=O)c3ccccc3N)C(=O)O[C@@H]2C)cc1`, in the data set with Bacteroides fragilis, the MIC result is listed as “>= 8192 ug ml-1”.
In the case of `CN[C@H](CC(C)C)C(=O)N[C@H]1C(=O)N[C@@H](CC(N)=O)C(=O)N[C@H]2C(=O)N[C@H]3C(=O)N[C@H](C(=O)N[C@H](C(=O)O)c4cc(O)cc(O)c4-c4cc3ccc4O)[C@H](O)c3ccc(c(Cl)c3)Oc3cc2cc(c3O[C@@H]2O[C@H](CO)[C@@H](O)[C@H](O)[C@H]2O[C@H]2C[C@](C)(N)[C@H](O)[C@H](C)O2)Oc2ccc(cc2Cl)[C@H]1O` [VANCOMYCIN], the MIC in the data set on Clostridioides difficile [2] is at least 4 µg/mL. Moreover, in the data set with Clostridioides difficile [3], the survival at 0.5 mg/kg came out at 25%.
Turning to `CCCCCCCCCC(=O)N[C@@H](Cc1c[nH]c2ccccc12)C(=O)N[C@H](CC(N)=O)C(=O)N[C@@H](CC(=O)O)C(=O)N[C@@H]1C(=O)NCC(=O)N[C@@H](CCCN)C(=O)N[C@@H](CC(=O)O)C(=O)N[C@H](C)C(=O)N[C@@H](CC(=O)O)C(=O)NCC(=O)N[C@H](CO)C(=O)N[C@@H]([C@H](C)CC(=O)O)C(=O)N[C@@H](CC(=O)c2ccccc2N)C(=O)O[C@@H]1C`, the MIC in the data set with Staphylococcus aureus [4] amounted to 4 µg/mL (≈ 2.47 µM); in the data set on Staphylococcus aureus [5], 2 µg/mL (≈ 1.23 µM); in the data set on Staphylococcus aureus [6], 1 µg/mL (≈ 0.617 µM); in the data set on Staphylococcus aureus [7], 2 µg/mL (≈ 1.23 µM); against Staphylococcus aureus [8] it was 2 µg/mL (≈ 1.23 µM); against Staphylococcus aureus [9] it was 2 µg/mL (≈ 1.23 µM). Moreover, the MIC against Staphylococcus aureus [10] was 4 µg/mL (≈ 2.47 µM); against Staphylococcus aureus [11] it was 1 µg/mL (≈ 0.617 µM); with Staphylococcus aureus [12] it was 4 µg/mL (≈ 2.47 µM); in the data set on Staphylococcus aureus [13], 1 µg/mL (≈ 0.617 µM); against Enterococcus faecalis it was over 32 µg/mL; against Clostridioides difficile [14] it was 2 µg/mL (≈ 1.23 µM). Further, the MIC against Staphylococcus aureus [15] was 0.5 µg/mL (≈ 0.309 µM); with Staphylococcus aureus [16], 2 µg/mL (≈ 1.23 µM); in the data set with Staphylococcus aureus [17], 2 µg/mL (≈ 1.23 µM); in the data set with Staphylococcus aureus [18] it was 4 µg/mL (≈ 2.47 µM); in the data set with Staphylococcus aureus [19] it was 16 µg/mL (≈ 9.87 µM); in the data set with Enterococcus faecium it was over 32 µg/mL. The MIC against Staphylococcus aureus [20] was 4 µg/mL (≈ 2.47 µM); with Staphylococcus aureus [21], 0.5 µg/mL (≈ 0.309 µM); in the data set on Staphylococcus aureus [22] it was 2 µg/mL (≈ 1.23 µM); against Staphylococcus aureus [23], 1 µg/mL (≈ 0.617 µM); in the data set on Staphylococcus aureus [24], 8 µg/mL (≈ 4.94 µM); in the data set on Staphylococcus aureus [25] it was 4 µg/mL (≈ 2.47 µM). In addition, the MIC in the data set with Staphylococcus aureus [26] was determined as 16 µg/mL (≈ 9.87 µM); in the data set with Staphylococcus aureus [27], 0.5 µg/mL (≈ 0.309 µM); against Staphylococcus aureus [28] it was 4 µg/mL (≈ 2.47 µM); against Staphylococcus aureus [29], 2 µg/mL (≈ 1.23 µM); against Staphylococcus aureus [30], 0.5 µg/mL (≈ 0.309 µM); in the data set on Staphylococcus aureus [31], 8 µg/mL (≈ 4.94 µM). The compound also had an MIC with Staphylococcus aureus [32] of 4 µg/mL (≈ 2.47 µM).
